Reference: patent publication US20030194409A1, “Conjugate heat shock protein-binding peptides” (priority 2002, published 2003)
Read-outs that look alike come from different tables or passages of the source. Where a SMILES comes first, the peptide text is derived from it.

Key:
[1] = 17- versus 19-allylamino derivative of herbimycin A; cited from earlier work
[2] = tested on: OVA-peptide pulsed EL4 cells; assay: 51Cr release assay with effector cells from immunized mice; format: cell-based, C57BL/6 mice; settings: mice immunized once or twice; OVA-primed EL-4 target cells
Method: Preparation of hsp70 and/or peptide for use in immunization. Approximately 15 μg hsp70 and 12 μg OVA-BiP were mixed, on ice, to a final volume of 10 μL in Buffer Y (to produce a final concentration of 21.5 μM hsp70, 0.5 mM OVA-BiP, 20 mM HEPES pH 7.0, 150 mM KCl, 10 MM (NH4)2SO4, 2 mM MgCl2 and 2 mM MgADP, pH 7.0). The mixture was incubated for 30 minutes at 37° C. and was used for in vivo immunizations. Similar incubations were carried out with (i) 5 μl TiterMax adjuvant (Vaxcell, Norcross, Ga.) and 12 μg OVA-BiP (ii) 5 μl TiterMax and 5 μg OVA peptide or (iii) 12 μg OVA-BiP alone.
Preparation of cells for chromium release assay. […]
Chromium release assay. […] Supernatants were harvested and radioactivitiy released by cytotoxic activity was measured in a gamma counter. The percent specific lysis was calculated as 100×[(cpm release by CTL−cpm spontaneously released)/(cpm maximal release−cpm spontaneously released)]. Maximal release was determined by adding 1% NP-40 to lyse all cells. Spontaneous release of all target in the absence of effector cells (measured in a culture of target cells (in the absence of effector cells) maintained in parallel for the duration of the assay) was less than 20% of the maximal release.

[3] = target: T1, gp96 in the presence of herbimycin A (Mus musculus, UniProt P08113); assay: Affinity panning of phage display heptapeptide library on gp96 in the presence of herbimycin A; format: binding; settings: TWEEN 20
T1 construct: The mouse cDNA encoding mature gp96 (i.e., wherein the endoplasmic reticulum signal peptide has been removed) was incorporated into the pET 11 a expression vector; made in house; host or cells: Escherichia coli BL21 (pET11gp96)
Method: Preparation of a gp96 expression vector. The mouse cDNA encoding mature gp96 (i.e., wherein the endoplasmic reticulum signal peptide has been removed) was incorporated into the pET 11 a expression vector (Novagen) as follows. Gp96 cDNA insert was prepared by polymerase chain reaction (PCR) of a pRc/CMV clone containing the cDNA using the following oligonucleotide primers: […]
Expression of gp96. pET11gp96 was transformed into BL21 Escherichia coli cells, and plated on LB plates containing ampicillin (50 μg/ml). One of the resulting colonies was used to inoculate a 20 ml overnight culture of 2×TY medium containing ampicillin (150 μg/ml). The following day, the resulting culture was spun down and the harvested bacteria were resuspended in 1 ml of fresh medium. Two one liter cultures were then each inoculated with 0.5 ml of the harvested cells and allowed to grow at 37° C. until the optical density, measured at 600 nm, was 0.5. Then, IPTG was added to a concentration of 1 mM and the cells were cultured for another 3 hours before being harvested by centrifugation. The resulting cell pellet was resuspended in 20 ml of 50 mM HEPES pH 7.5, 50 mM KCl, 5 mM MgAcetate, 20% sucrose and 1 mM PMSF. Cell extracts were prepared by pressure shearing in a French Press. The lysates were then spun at 100,000×g for 1.5 hours and the supernatant, which constituted crude gp96 extract, was collected.
Purification of gp96. The following steps were all performed at 4° C. A 12.5 cm×3.2 cm column of DE52 resin (Whatman) was equilibrated in a solution of 50 mM MOPS pH 7.4, 10 mM NaCl, 5 mM MgAcetate (hereafter, “Buffer A”). The crude gp96 extract was diluted 2-fold and immediately loaded onto the column at a flow rate of 2 ml/min. Elution from the column was achieved using a gradient of a solution of 50 mM MOPS pH 7.4, 1M NaCl, 5 mM MgAcetate (hereafter, “Buffer B”) from 0% to 100% Buffer B over 1000 ml. The elution profile was examined by subjecting fractions collected from the column to SDS-PAGE analysis. Fractions containing gp96 were pooled and diluted 2-fold with cold water, and were immediately run onto the next column (see below).
A 10 cm×1 cm column of hydroxyapatite (BioRad) was washed with 100 ml 0.5 M K2HPO4, 50 mM KCl pH 7.4 and then equilibrated with 10 mM K2HPO4, 50 mM KCl pH 7.4. The pooled diluted fractions from the DE52 column were loaded onto this column at a flow rate of 1 ml/min. The gp96 protein was eluted in a gradient of 10-500 mM K2HPO4 over 800 ml. Fractions containing gp96 were pooled and loaded onto the phenylsepharose column described below.
A 9 cm×3 cm column of phenylsepharose (Pharmacia) was equilibrated with 500 mM NaCl, 50 mM MOPS pH 7.4. The pooled fractions containing gp96 from the hydroxyapatite were loaded onto this column at 1 ml/min and the gp96 was eluted in a gradient of 500-0 mM NaCl over 800 ml. The gp96 containing fractions collected from the column were identified by SDS-PAGE, pooled, and concentrated.
The gp96 was then loaded onto a Hi Load 26/60 Superdex-200 column (Pharmacia) equilibrated with 100 mM NaCl, 5 mM MgAcetate, 50 mM MOPS pH 7.5, 3 ml fractions were collected, and the fractions containing the most pure gp96 (as identified by SDS PAGE using a 12 percent reducing gel) and pooled. To the pooled fractions, glycerol was added to 10% (v/v), and then the fractions were concentrated to 21 mg/ml on a Centricon-50 concentrator (Amicon), frozen using liquid nitrogen, and stored at −80° C.
Affinity panning. The Ph.D. Phage Display Library Kit (New England BioLabs, Beverly, Mass.), was used for affinity panning. For each panning experiment, a well of a 96-well polystyrene microtiter plate (each well having a 6 mm diameter) was filled with 150 μl of a solution of 200 μg/ml of gp96 in 0.1 M NaHCO3 pH 8.3. If herbimycin A was to be included in the experiment, 1 μl of 10 mg/ml herbimycin A (GIBCO) in DMSO was added to each well, corresponding to a 50-fold molar excess relative to gp96. […]

[4] = target: T1, gp96 in the presence of herbimycin A; settings: expected frequency for comparison with % actual, cited from earlier work
EG7 cells = assay: EG7 tumor cell challenge after immunization; format: in vivo, C57BL/6 mice; settings: peptide alone, without TiterMax or hsp70, eight mice per group
Method: C57BL/6 mice, 8-10 weeks old, were immunized intradermally with one of the following (eight mice in each group): (a)5 μl TiterMax and 5 μg OVA peptide; (b) 15 μg hsp70 and 5 μg OVA peptide; (c) 5 μl TiterMax and […] (OVA-BiP); (d) 15 μg hsp70 and 12 μg OVA-BiP; (e) control (four animals only in this group); (f) 5 μg OVA peptide; or (g) 12 μg OVA-BiP. The mice then were injected with 4×10^6 EG7 cells. Tumor size was evaluated over time by measuring two diameters, the greatest diameter and the diameter perpendicular to the greatest diameter, and then calculating the average diameter. The results are shown in FIGS. 8A-G (corresponding to groups a-g, as set forth above).

[5] = Table XII, gp96 and herbimycin A, binding buffer without calcium: 20 mM HEPES pH 7.5, 100 mM KCl, 1 mM DTT, 1 mM MgAcetate, 42 phage-expressed peptides sequenced
[6] = Table XIV, gp96 in the presence of herbimycin A, binding buffer with ATP: 20 mM HEPES pH 7.5, 100 mM KCl, 1 mM CaCl2, 1 mM MgAcetate, 1 mM ATP
[7] = Table XVI, binding buffer with AMP-PNP instead of ATP: 20 mM HEPES pH 7.5, 100 mM KCl, 1 mM CaCl2, 1 mM MgAcetate, 1 mM AMP-PNP

T1 sequence (P08113 22-802): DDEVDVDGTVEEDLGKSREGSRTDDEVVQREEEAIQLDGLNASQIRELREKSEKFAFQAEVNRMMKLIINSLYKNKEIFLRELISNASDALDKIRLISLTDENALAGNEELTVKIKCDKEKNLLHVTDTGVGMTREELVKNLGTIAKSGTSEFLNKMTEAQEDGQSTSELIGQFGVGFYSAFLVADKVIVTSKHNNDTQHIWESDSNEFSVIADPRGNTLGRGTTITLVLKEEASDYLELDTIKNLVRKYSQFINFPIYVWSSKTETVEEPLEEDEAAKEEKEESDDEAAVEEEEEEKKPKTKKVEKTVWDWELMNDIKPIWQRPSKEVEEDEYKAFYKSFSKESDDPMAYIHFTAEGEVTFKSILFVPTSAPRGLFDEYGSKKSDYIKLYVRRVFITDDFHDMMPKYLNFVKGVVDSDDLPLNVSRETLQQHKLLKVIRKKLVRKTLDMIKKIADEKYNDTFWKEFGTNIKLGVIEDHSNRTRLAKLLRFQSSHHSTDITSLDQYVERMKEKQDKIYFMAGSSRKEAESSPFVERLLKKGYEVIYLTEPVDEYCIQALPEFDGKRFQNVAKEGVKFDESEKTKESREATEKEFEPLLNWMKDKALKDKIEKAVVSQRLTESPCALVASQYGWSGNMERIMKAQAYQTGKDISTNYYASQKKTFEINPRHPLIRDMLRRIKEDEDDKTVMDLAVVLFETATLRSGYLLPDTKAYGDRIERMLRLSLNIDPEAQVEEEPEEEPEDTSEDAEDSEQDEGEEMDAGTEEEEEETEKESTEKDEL

% actual (amino acid frequency in sequenced gp96-binding phage-expressed heptapeptides) [3, 5] [%] | % actual (amino acid frequency in sequenced gp96-binding phage-expressed heptapeptides) [3, 6] [%] | % actual (amino acid frequency in sequenced gp96-binding phage-expressed heptapeptides) [3, 7] [%] | Compound | % expected (amino acid frequency) ([4]; Table XII) [%] | % expected (amino acid frequency) ([4]; Table XIV) [%] | % expected (amino acid frequency) ([4]; Table XVI) [%] | also measured
– | – | – | 17-allylamino herbimycin | – | – | – | activity [1]: more active than 19-allylamino herbimycin
– | – | – | CC[C@H](C)[C@H](NC(=O)[C@@H](NC(=O)[C@@H](N)CO)[C@@H](C)CC)C(=O)N[C@@H](CC(N)=O)C(=O)N[C@@H](Cc1ccccc1)C(=O)N[C@@H](CCC(=O)O)C(=O)N[C@@H](CCCCN)C(=O)N[C@@H](CC(C)C)C(=O)NCC(=O)N[C@@H](CO)C(=O)NCC(=O)N[C@@H](Cc1c[nH]cn1)C(=O)N[C@@H](Cc1c[nH]c2ccccc12)C(=O)N[C@@H](CC(=O)O)C(=O)N[C@@H](Cc1ccccc1)C(=O)N[C@@H](C)C(=O)N[C@@H](Cc1c[nH]c2ccccc12)C(=O)N1CCC[C@H]1C(=O)N[C@@H](Cc1c[nH]c2ccccc12)C(=O)O [OVA-BiP] (H-SIINFEKLGSGHWDFAWPW-OH) | – | – | – | OVA-specific cytotoxic immune response [2]: significant anti-OVA immune response
4.76 | 7.1 | 4.28 | N[C@@H](Cc1ccc(O)cc1)C(=O)O [Tyr] | 2.9 | 2.9 | 2.9 | –
4.08 | 5.3 | 8.5 | CC(C)[C@H](N)C(=O)O [Val] | 4.3 | 4.3 | 4.3 | –
– | – | – | Ser Ile Ile Asn Phe Glu Lys Leu (SIINFEKL; printed: Ser Ile Ile Asn Phe Glu Lys Leu) [OVA peptide] | – | – | – | tumor-free animals (EG7 cells): no animals were tumor-free
